Data reported in patent publication US20200031778A1, “NOVEL 5-SUBSTITUTED IMIDAZOLYLMETHYL DERIVATIVES” (Bayer CropScience Aktiengesellschaft, priority 2016, published 2020).

Tests used:
[1] = Log P by HPLC on reversed phase columns (EEC directive 79/831 Annex V.A8; methods [a], [b], [c]); assay type: physicochemical; conditions: reversed phase HPLC column; method [a]: LC-UV, acidic range, 0.1% formic acid in water and acetonitrile as eluent (linear gradient from 10% to 95% acetonitrile)
In short: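 Log P derived from retention times, interpolated linearly between bracketing straight-chain alkan-2-ones (3–16 carbons) of known Log P. Eluents ran acetonitrile 10% to 95% against water with 0.1% formic acid ([a], acidic), 0.001 M ammonium acetate ([b], neutral) or 0.1% phosphoric acid ([c], acidic); UV read-out.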

Puccinia recondita = experiment: Example IX-A: in vivo preventive test on Puccinia recondita (brown rust on wheat); conditions: 264 h, compounds of formula IX, 500 ppm of active ingredient, wheat plants, preventive spray, evaluated 11 days after inoculation, read-out: efficacy
In short: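 Young wheat plants sprayed with compound in DMSO/acetone/Tween 80 diluted in water, inoculated 24 h later with spore suspension. Incubated 24 h at 20 °C, 100% RH, then 10 days at 20 °C, 70-80% RH. Efficacy scored 11 days post-inoculation, 0% equal to solvent-treated controls, 100% no disease.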

Septoria tritici = experiment: Example IX-B: in vivo preventive test on Septoria tritici (leaf spot on wheat); conditions: Zymoseptoria tritici, 576 h; compounds of formula IX; 500 ppm of active ingredient; wheat plants, preventive spray; evaluated 24 days after inoculation; read-out: efficacy
In short: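 Wheat seedlings sprayed preventively with compound dissolved in DMSO/acetone/Tween 80 and diluted in water; solvent-only controls. Spore suspension of S. tritici sprayed 24 h later; 72 h at 18 °C/100% RH, then 21 days at 20 °C/90% RH. Efficacy scored 24 days post-inoculation, 0% = control, 100% = no disease.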

Sphaerotheca fuliginea = experiment: Example IX-C: in vivo preventive test on Sphaerotheca fuliginea (powdery mildew on cucurbits); conditions: Podosphaera fuliginea, 360 h; compounds of formula IX; 500 ppm of active ingredient; gherkin plants, preventive spray; evaluated 15 days after inoculation; read-out: efficacy
In short: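 Young gherkin plants sprayed with compound in DMSO/acetone/Tween 80 diluted in water, then inoculated 24 h later with Sphaerotheca fuliginea spores. Kept 72 h at 18 °C/100% RH, then 12 days at 20 °C/70-80% RH; efficacy scored 15 days post-inoculation, 0% = control, 100% = no disease.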

Uromyces appendiculatus = experiment: Example IX-D: in vivo preventive test on Uromyces appendiculatus (bean rust); conditions: 264 h, compounds of formula IX, 500 ppm of active ingredient, bean plants, preventive spray, evaluated 11 days after inoculation, read-out: efficacy
Method: Example IX-D: In Vivo Preventive Test on Uromyces Appendiculatus (Bean Rust)
The active ingredients are made soluble and homogenized in a mixture of Dimethyl sulfoxide/Acetone/Tween® 80 and then diluted in water to the desired concentration.
The young plants of bean are treated by spraying the active ingredient prepared as described above. Control plants are treated only with an aqueous solution of Acetone/Dimethyl sulfoxide/Tween® 80.
After 24 hours, the plants are contaminated by spraying the leaves with an aqueous suspension of Uromyces appendiculatus spores. The contaminated bean plants are incubated for 24 hours at 20° C. and at 100% relative humidity and then for 10 days at 20° C. and at 70-80% relative humidity.
The test is evaluated 11 days after the inoculation. 0% means an efficacy which corresponds to that of the control plants while an efficacy of 100% means that no disease is observed.
control plants while an efficacy of 100% means that no disease was observed.

Compound | chromatographic logP [1] | pest or weed control at 500 ppm (Puccinia recondita) [%] | pest or weed control at 500 ppm (Septoria tritici) [%] | pest or weed control at 500 ppm (Sphaerotheca fuliginea) [%] | pest or weed control at 500 ppm (Uromyces appendiculatus) [%]
O=C(Cn1cncc1C(F)(F)F)c1ccc(Oc2ccc(Cl)cc2)cc1F [IX-80] | 3.85 | 90 to 100 | 90 to 100 | 90 to 100 | 90 to 100
O=C(Cn1cncc1F)c1cnc(Oc2ccc(Br)cc2)cc1C(F)(F)F [IX-82, 1-[6-(4-bromophenoxy)-4-(trifluoromethyl)-3-pyridyl]-2-(5-fluoroimidazol-1-yl)ethanone] | 2.73 | 70 to 79 | 90 to 100 | 90 to 100 | 90 to 100
O=C(Cn1cncc1F)c1ccc(Oc2ccc(Cl)cc2)cc1C(F)(F)F [IX-83] | 2.88 | 80 to 89 | 90 to 100 | 80 to 89 | 90 to 100
O=C(Cn1cncc1F)c1ccc(Oc2ccc(C(F)F)cc2)nc1Cl [IX-84] | 2.12 | 80 to 89 | 90 to 100 | 90 to 100 | 90 to 100
O=C(Cn1cncc1F)c1ccc(Oc2ccc(Br)cc2)nc1C(F)(F)F [IX-86] | 2.76 | 90 to 100 | 90 to 100 | 90 to 100 | 90 to 100
O=C(Cn1cncc1F)c1ccc(Oc2ccc(Cl)cc2)nc1F [IX-88] | 2.14 | 70 to 79 | 90 to 100 | 90 to 100 | 80 to 89
N#Cc1cncn1CC(=O)c1cnc(Oc2ccc(C(F)(F)F)cc2)cc1C(F)(F)F [IX-89] | 3.42 | 80 to 89 | 90 to 100 | 90 to 100 | 90 to 100
N#Cc1cncn1CC(=O)c1cnc(Oc2ccc(Cl)cc2)cc1Cl [IX-91] | 3 | 90 to 100 | 90 to 100 | 90 to 100 | 90 to 100
N#Cc1cncn1CC(=O)c1cnc(Oc2ccc(Cl)cc2)cc1Br [IX-92] | 3.08 | 80 to 89 | 90 to 100 | 90 to 100 | 80 to 89
O=C(Cn1cncc1F)c1cnc(Oc2ccc(Cl)cc2)cc1Br [IX-93] | 2.39 | 80 to 89 | 90 to 100 | 90 to 100 | 90 to 100
O=C(Cn1cncc1F)c1cnc(Oc2ccc(Cl)cc2)cc1Cl [IX-94] | 2.32 | 80 to 89 | 90 to 100 | 90 to 100 | 90 to 100
O=C(Cn1cncc1F)c1cnc(Oc2ccc(Cl)cc2F)cc1C(F)(F)F [IX-95] | 2.84 | 70 to 79 | 70 to 79 | 90 to 100 | 90 to 100
O=C(Cn1cncc1F)c1cnc(Oc2ccc(Cl)cc2)cc1C(F)(F)F [IX-104] | 2.5 | 90 to 100 | 90 to 100 | 90 to 100 | 90 to 100
N#Cc1cncn1CC(=O)c1ccc(Oc2ccc(Cl)cc2)nc1C(F)(F)F [IX-107] | 3.33 | 90 to 100 | 90 to 100 | 90 to 100 | 80 to 89
O=C(Cn1cncc1F)c1cnc(Oc2ccc(OC(F)(F)F)cc2)cc1C(F)(F)F [IX-108] | 2.89 | 80 to 89 | 90 to 100 | 90 to 100 | 90 to 100
